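Growth conditions: 96-well plates. Treatment: test compound, 48 hours, 5 concentrations. Analysis: linear interpolation between bracketing concentrations; unreached endpoints set to highest concentration. The concentration for full growth arrest is given as TGI.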
Experiments:
Assay in all cases: growth of human tumour cells (NCI), 48 h
SW-620 colon = system: SW-620 colon
M14 melanoma = system: M14 melanoma
SNB-75 CNS = system: SNB-75 CNS
OVCAR-8 ovarian = system: OVCAR-8 ovarian
EKVX NSCLC = system: EKVX NSCLC
A498 renal = system: A498 renal
SK-OV-3 ovarian = system: SK-OV-3 ovarian
SF-539 CNS = system: SF-539 CNS
HCT-116 colon = system: HCT-116 colon
786-0 renal = system: 786-0 renal
A549 NSCLC = system: A549 NSCLC
MOLT-4 leukemia = system: MOLT-4 leukemia
LOX IMVI melanoma = system: LOX IMVI melanoma
RPMI-8226 leukemia = system: RPMI-8226 leukemia
UO-31 renal = system: UO-31 renal
RXF 393 renal = system: RXF 393 renal
OVCAR-5 ovarian = system: OVCAR-5 ovarian
HOP-62 NSCLC = system: HOP-62 NSCLC
KM12 colon = system: KM12 colon
HCT-15 colon = system: HCT-15 colon
KM20L2 colon = system: KM20L2 colon
SK-MEL-2 melanoma = system: SK-MEL-2 melanoma
UACC-62 melanoma = system: UACC-62 melanoma
SF-268 CNS = system: SF-268 CNS
OVCAR-3 ovarian = system: OVCAR-3 ovarian
DMS 273 small cell lung = system: DMS 273 small cell lung
SK-MEL-28 melanoma = system: SK-MEL-28 melanoma
K-562 leukemia = system: K-562 leukemia
MALME-3M melanoma = system: MALME-3M melanoma
HT29 colon = system: HT29 colon
DMS 114 small cell lung = system: DMS 114 small cell lung
SNB-78 CNS = system: SNB-78 CNS
HL-60(TB) leukemia = system: HL-60(TB) leukemia
TK-10 renal = system: TK-10 renal
NCI-H226 lung = system: NCI-H226 lung
UACC-257 melanoma = system: UACC-257 melanoma
COLO 205 colon = system: COLO 205 colon
SNB-19 CNS = system: SNB-19 CNS
SK-MEL-5 melanoma = system: SK-MEL-5 melanoma
M19-MEL melanoma = system: M19-MEL melanoma
SF-295 CNS = system: SF-295 CNS
SN12C renal = system: SN12C renal
NCI-H460 lung = system: NCI-H460 lung
DU-145 prostate = system: DU-145 prostate
OVCAR-4 ovarian = system: OVCAR-4 ovarian
T-47D breast = system: T-47D breast
HCC-2998 colon = system: HCC-2998 colon
BT-549 breast = system: BT-549 breast
SR leukemia = system: SR leukemia
MDA-MB-231 breast = system: MDA-MB-231 breast
ACHN renal = system: ACHN renal
PC-3 prostate = system: PC-3 prostate
NCI-H522 lung = system: NCI-H522 lung
U251 CNS = system: U251 CNS
NCI-H23 lung = system: NCI-H23 lung
IGROV1 ovarian = system: IGROV1 ovarian
CCRF-CEM leukemia = system: CCRF-CEM leukemia
HOP-92 NSCLC = system: HOP-92 NSCLC
NCI/ADR-RES ovarian = system: NCI/ADR-RES ovarian
MDA-N = system: MDA-N
HS 578T breast = system: HS 578T breast
MCF7 breast = system: MCF7 breast
MDA-MB-435 = system: MDA-MB-435

**Q.** What does the source list for `CN(C)c1ccc(/C=C/C=C\C2=CC(=C\C=C/C=C3C=CC(=[N+](C)C)C=C3)/Sc3ccccc32)cc1`?
**A.** TGI (SW-620 colon): > 100 µM; TGI (M14 melanoma): 27.5 µM; TGI (SNB-75 CNS): > 100 µM; TGI (OVCAR-8 ovarian): > 100 µM; TGI (EKVX NSCLC): > 100 µM; TGI (A498 renal): > 100 µM; TGI (SK-OV-3 ovarian): > 100 µM; TGI (SF-539 CNS): > 100 µM; TGI (HCT-116 colon): > 100 µM; TGI (786-0 renal): > 100 µM; TGI (A549 NSCLC): > 100 µM; TGI (MOLT-4 leukemia): > 100 µM; TGI (LOX IMVI melanoma): 64.1 µM; TGI (RPMI-8226 leukemia): > 100 µM; TGI (UO-31 renal): > 100 µM; TGI (RXF 393 renal): 32.7 µM; TGI (OVCAR-5 ovarian): > 100 µM; TGI (HOP-62 NSCLC): > 100 µM; TGI (KM12 colon): > 100 µM; TGI (HCT-15 colon): > 100 µM; TGI (KM20L2 colon): > 100 µM; TGI (SK-MEL-2 melanoma): > 100 µM; TGI (UACC-62 melanoma): > 100 µM; TGI (SF-268 CNS): > 100 µM; TGI (OVCAR-3 ovarian): > 100 µM; TGI (DMS 273 small cell lung): > 100 µM; TGI (SK-MEL-28 melanoma): 28.9 µM; TGI (K-562 leukemia): > 100 µM; TGI (MALME-3M melanoma): > 100 µM; TGI (HT29 colon): > 100 µM; TGI (DMS 114 small cell lung): 24.4 µM; TGI (SNB-78 CNS): > 100 µM; TGI (HL-60(TB) leukemia): > 100 µM; TGI (TK-10 renal): > 100 µM; TGI (NCI-H226 lung): > 100 µM; TGI (UACC-257 melanoma): > 100 µM; TGI (COLO 205 colon): 78.3 µM; TGI (SNB-19 CNS): > 100 µM; TGI (SK-MEL-5 melanoma): > 100 µM; TGI (M19-MEL melanoma): 35 µM; TGI (SF-295 CNS): > 100 µM; TGI (SN12C renal): > 100 µM; TGI (NCI-H460 lung): > 100 µM

**Q.** With `COc1ccc(/C=C/c2cc(OC)c(OC)c(OC)c2)cc1O` as the compound, how does the TGI (EKVX NSCLC) read?
**A.** 59.3 µM

**Q.** And the TGI (SK-OV-3 ovarian)?
**A.** 39.9 µM

**Q.** What about the TGI (DU-145 prostate) of the same compound?
**A.** 38.9 µM

**Q.** What about the TGI (786-0 renal) of the same compound?
**A.** 15.3 µM

**Q.** What about the TGI (OVCAR-4 ovarian) of the same compound?
**A.** 71.5 µM

**Q.** What about the TGI (UO-31 renal) of the same compound?
**A.** 21 µM

**Q.** And the TGI (OVCAR-5 ovarian)?
**A.** 79.5 µM

**Q.** What about the TGI (KM20L2 colon) of the same compound?
**A.** 25.1 µM

**Q.** And the TGI (HT29 colon)?
**A.** 24 µM

**Q.** What about the TGI (T-47D breast) of the same compound?
**A.** 45.7 µM

**Q.** And the TGI (TK-10 renal)?
**A.** 75.1 µM

**Q.** What about the TGI (COLO 205 colon) of the same compound?
**A.** 54.3 µM

**Q.** And the TGI (HCC-2998 colon)?
**A.** 36.9 µM

**Q.** What about the TGI (BT-549 breast) of the same compound?
**A.** 40.7 µM

**Q.** What does the source list for `Nc1ncnc2c1ccn2C1OC2COP(=O)(O)OC2C1O` (centres undefined)?
**A.** TGI (SW-620 colon): > 44.5 µM; TGI (M14 melanoma): 1.54 µM; TGI (OVCAR-8 ovarian): 7.94 µM; TGI (EKVX NSCLC): 57.7 µM; TGI (A498 renal): 28.2 µM; TGI (SK-OV-3 ovarian): 24.5 µM; TGI (DU-145 prostate): > 100 µM; TGI (SR leukemia): 25.6 µM; TGI (SF-539 CNS): 20.2 µM; TGI (HCT-116 colon): 10.4 µM; TGI (786-0 renal): > 20.9 µM; TGI (A549 NSCLC): 12.8 µM; TGI (MDA-MB-231 breast): 12.2 µM; TGI (MOLT-4 leukemia): 10.9 µM; TGI (ACHN renal): 14.2 µM; TGI (LOX IMVI melanoma): 1.34 µM; TGI (OVCAR-4 ovarian): 9.6 µM; TGI (RPMI-8226 leukemia): > 100 µM; TGI (UO-31 renal): > 100 µM; TGI (RXF 393 renal): 5.02 µM; TGI (OVCAR-5 ovarian): 46.9 µM; TGI (HOP-62 NSCLC): 11.2 µM; TGI (PC-3 prostate): 3.07 µM; TGI (KM12 colon): 16.5 µM; TGI (HCT-15 colon): 3.11 µM; TGI (SK-MEL-2 melanoma): 5.52 µM; TGI (NCI-H522 lung): 1.07 µM; TGI (U251 CNS): > 100 µM; TGI (NCI-H23 lung): 9.37 µM; TGI (IGROV1 ovarian): > 31 µM; TGI (UACC-62 melanoma): 1.45 µM; TGI (CCRF-CEM leukemia): 20.2 µM; TGI (SF-268 CNS): 8.06 µM; TGI (OVCAR-3 ovarian): > 96.3 µM; TGI (HOP-92 NSCLC): 7.41 µM; TGI (SK-MEL-28 melanoma): 14.2 µM; TGI (K-562 leukemia): 19 µM; TGI (MALME-3M melanoma): 1.41 µM; TGI (HT29 colon): 11.7 µM; TGI (T-47D breast): 55.3 µM; TGI (NCI/ADR-RES ovarian): > 31.8 µM; TGI (HL-60(TB) leukemia): > 23.2 µM; TGI (TK-10 renal): 4.8 µM; TGI (NCI-H226 lung): 28.5 µM; TGI (UACC-257 melanoma): 9.11 µM; TGI (COLO 205 colon): 3.99 µM; TGI (MDA-N): 11.1 µM; TGI (SNB-19 CNS): > 75.9 µM; TGI (SK-MEL-5 melanoma): 1.59 µM; TGI (HS 578T breast): > 31 µM; TGI (SF-295 CNS): 29.5 µM; TGI (HCC-2998 colon): 9.45 µM; TGI (SN12C renal): 12.7 µM; TGI (NCI-H460 lung): 12.9 µM; TGI (BT-549 breast): 24 µM; TGI (MCF7 breast): > 100 µM; TGI (MDA-MB-435): 2.31 µM

Reference: PubChem BioAssay (NCI)
